# Laboratory results: ChEMBL document CHEMBL5346901, “Discovery of potent Plasmodium falciparum protein kinase 6 (PfPK6) inhibitors with a type II inhibitor pharmacophore” (Eur J Med Chem, 2023)
# pEC50: −log10 of the molar value. The source made the active and inactive calls. The calls are words filed in the database; no cut-off is given here.
# Tested on: Plasmodium falciparum
# Test: Antimalarial activity against blood stage Plasmodium falciparum 3D7 assessed as reduction in parasite growth incubated for 72 hrs by SYBR Green dye based fluorescence assay
# Format: functional, organism-based
# Conditions: not given
row,SMILES,Activity
1,COc1cccc(NC(=O)Nc2ccc(Oc3ccnc4cc(OC)c(OC)cc34)cc2F)c1,inactive
2,COc1cc2nccc(Oc3ccc(NC(=O)Nc4ccc(C(=O)N5CCN(C)CC5)c(C(F)(F)F)c4)c(F)c3)c2cc1OC,inactive
3,COc1cc2nccc(Oc3ccc(NC(=O)Nc4cccc(OC(C)C)c4)c(F)c3)c2cc1OC,inactive
4,COc1cc2nccc(Oc3ccc(NC(=O)Nc4cc(C(=O)N5CCN(C)CC5)cc(C(F)(F)F)c4)c(F)c3)c2cc1OC,inactive
5,COc1cc2nccc(Oc3ccc(NC(=O)Nc4cccc(C#N)c4)c(F)c3)c2cc1OC,inactive
6,COc1cc2nccc(Oc3ccc(NC(=O)Nc4cccc(C(=O)N5CCN(C)CC5)c4)c(F)c3)c2cc1OC,inactive
7,COc1cc2nccc(Oc3ccc(NC(=O)Nc4ccc(CN5CCOCC5)cc4)c(F)c3)c2cc1OC,inactive
8,COc1cc2nccc(Oc3ccc(NC(=O)Nc4ccc(C(=O)N5CCN(C)CC5)cc4)c(F)c3)c2cc1OC,inactive
9,COc1cc2nccc(Oc3ccc(NC(=O)Nc4cc(C(F)(F)F)ccc4F)c(F)c3)c2cc1OC,inactive

# Same assay, conditions: 3D7, 72 h
row,SMILES,pEC50
1,COc1cc2nccc(Oc3ccc(NC(=O)Nc4ccc(CN5CCCCC5)cc4)c(F)c3)c2cc1OC,6.60
2,COc1cc2nccc(Oc3ccc(NC(=O)Nc4cccc(C(F)(F)F)c4)c(F)c3)c2cc1OC,6.27
3,COc1cc2nccc(Oc3ccc(NC(=O)Nc4cccc(Cl)c4)c(F)c3)c2cc1OC,5.66
4,COc1cc2nccc(Oc3ccc(NC(=O)Nc4ccc(CN5CCCC5)c(C(F)(F)F)c4)c(F)c3)c2cc1OC,6.48
5,COc1cc2nccc(Oc3ccc(NC(=O)Nc4cccc(C)c4)c(F)c3)c2cc1OC,5.52
6,COc1cc2nccc(Oc3ccc(NC(=O)Nc4ccc(OC5CCN(C)CC5)cc4)c(F)c3)c2cc1OC,6.48
7,COc1cc2nccc(Oc3ccc(NC(=O)Nc4ccc(CN5CCCC5)cc4)c(F)c3)c2cc1OC,6.57
8,COc1cc2nccc(Oc3ccc(NC(=O)Nc4ccc(NC5CCN(C)CC5)cc4)c(F)c3)c2cc1OC,6.18
9,CCN(CC)Cc1ccc(NC(=O)Nc2ccc(Oc3ccnc4cc(OC)c(OC)cc34)cc2F)cc1OC(F)(F)F,6.57
10,CCN(CC)Cc1ccc(NC(=O)Nc2ccc(Oc3ccnc4cc(OC)c(OC)cc34)cc2F)cc1C(F)(F)F,6.52
11,COc1cc2nccc(Oc3cc(C(=O)Nc4ccc(CN5CCN(C)CC5)c(C(F)(F)F)c4)ccc3C)c2cc1OC,6.39
12,CN1CCN(C(=O)c2cccc(NC(=O)Nc3ccc(N(C)c4ccnc(Nc5ccc(CS(C)(=O)=O)cc5)n4)cc3)c2)CC1,6.41
13,COc1cc2nccc(Oc3ccc(NC(=O)Nc4ccc(N5CCN(C)CC5)cc4)c(F)c3)c2cc1OC,6.20
14,COc1cc2nccc(Oc3ccc(NC(=O)Nc4ccc(OC5CCN(C)CC5)c(OC(F)(F)F)c4)c(F)c3)c2cc1OC,7.12
15,COc1cc2nccc(Oc3ccc(NC(=O)Nc4cccc(C(C)(C)C)c4)c(F)c3)c2cc1OC,5.60
16,COc1cc2nccc(Oc3ccc(NC(=O)Nc4ccc(C=C5CCNCC5)c(OC(F)(F)F)c4)c(F)c3)c2cc1OC,7.08
17,COc1cc2nccc(Oc3ccc(NC(=O)Nc4cccc(OC(F)(F)F)c4)c(F)c3)c2cc1OC,6.10
18,COc1cc2nccc(Oc3ccc(NC(=O)Nc4cc(CN5CCN(C)CC5)cc(C(F)(F)F)c4)c(F)c3)c2cc1OC,6.39
19,C[C@H]1[C@@H](O)O[C@@H]2O[C@@]3(C)CC[C@H]4[C@H](C)CC[C@@H]1[C@@]24OO3 [ARTENIMOL],9.85
20,COc1cc2nccc(Oc3ccc(NC(=O)Nc4ccc(CN5CCN(C)CC5)cc4)c(F)c3)c2cc1OC,6.24
21,COc1cc2nccc(Oc3ccc(NC(=O)Nc4ccc(CC5CCNCC5)c(OC(F)(F)F)c4)c(F)c3)c2cc1OC,7.09
22,COc1cc2nccc(Oc3ccc(NC(=O)Nc4ccc(CN5CCCC5)c(OC(F)(F)F)c4)c(F)c3)c2cc1OC,6.64
23,COc1cc2nccc(Oc3ccc(NC(=O)Nc4ccc(CN5CCCCC5)c(C(F)(F)F)c4)c(F)c3)c2cc1OC,6.31
